# Measured values published in US12100497B1, “Population-based immune rescue via herd immunity mediated by cells” (Channel Content Company LLC, priority 2023, dated 2024).
# Key:
# [1] = system: Covid; test: One year investigation at Prestige Home Health, vitamin D protocol, Covid positive tests; assay type: in vivo, human; conditions: target vitamin D level 60 ng/ml
# Method: In order to test some of the concepts disclosed herein, a one year investigation was conducted to gather data where there was an objective of bringing participants to a target level of vitamin D of 60 ng/ml treated at home by staff at Prestige Home Health in Starr county, Texas and also residents of nursing homes. Data on patients and staff was provided by Yolanda Garza registered nurse (RN)/Director of Nursing (DON) on Sep. 19, 2022. For patients that followed the disclosed protocol, zero tested positive for Covid as compared to fifty-three patients who tested positive for Covid who were not on the protocol. During the same one year period, four staff members on the disclosed protocol tested positive for Covid compared to 83 staff members who tested positive who were not on the disclosed protocol. Prestige Home Health also provided portable humidifiers in homes of many of the patients treated at home. Little or no sensors were provided to determine the level of humidification. Retama Manor also tried to make indoor humidify viral safe inside their facility by including humidifiers again without sensors. Though the capacity of their humidifiers was subpar, indoor humidity in all likelihood contributed to the facility's remarkable overall success. Only one patient at Retama Manor whose Vitamin D level was in the viral safe range tested positive during the 15 month study period.
# [2] = system: Covid; test: Retama Manor nursing home 15 month study, vitamin D protocol, Covid positive tests; assay type: in vivo, human
# [3] = system: acute respiratory illness; conditions: higher doses of vitamin D; patients studied for a year; cited from earlier work
# [4] = vitamin D exposure over 10 years; cohort of 12,388 persons; cited from earlier work
substance,measurement,setting,value
vitamin D,patients on the disclosed protocol who tested positive for Covid,[1]; 53 positive patients not on protocol,zero
same,staff members on the disclosed protocol who tested positive for Covid,[1]; 83 positive staff not on protocol,four
same,"Covid cases per staff member, less than the other two nursing homes",[2]; Retama Manor versus the other two nursing homes in Rio Grande City,45%
same,patients on vitamin D protocol / in viral safe range who tested positive for Covid,"[2]; Retama Manor, 15 month (six quarter) study period",one
same,Dr. Mussett's patients who tested positive for Covid,"[2]; their patients at all three nursing homes in Rio Grande City, study period",two
same,reduction in acute respiratory illness,[3],40%
same,lowering of the risk of dementia,[4],40%
